The results in this text go back to patent US11124489B2, “EPAC antagonists” (priority 2017, dated 2021).

Experiment [1] deals with T1, EPAC1 (Homo sapiens (Human), UniProt O95398). The experiment in a line: biochemical.
For experiment [2], the target named is T2, EPAC2 (Mus musculus (Mouse), UniProt Q9EQZ6). Briefly: biochemical. The following applies: Rap1b-bGDP EPAC2 IC50, apparent IC50, EPAC2 GEF activity, 20 μM cAMP.
Method: (§2) In Vitro Evaluation of EPAC2 Inhibition.
(§3) In vitro EPAC GEF activity was acquired as previously described (Zhu et al., Sci. Rep. (2015) 5:9344). Briefly, the assay was performed using 500 nM Rap1b-BODIPY-GDP and 200 nM EPAC proteins in buffer containing 50 mM Tris-HCl pH 7.5, 50 mM NaCl, 5 mM MgCl2, 1 mM DTT, 50 mM GDP and the indicated concentrations of test compounds at room temperature using half-area 96-well plates (Corning Costar 3915). The exchange reaction was monitored using a Spectramax M2 Plate Reader (Molecular Devices) with the excitation/emission wavelengths set at 485/515 nm. The reaction rate constant (kobs) was determined by globally fitting the experimental data to a single exponential equation.
Experiment [3] has as its target T1, EPAC1.
For experiment [4], the target named is T2, EPAC2. Particulars: for Relative GEF activity, EPAC2-mediated Rap1b-bGDP exchange: in the presence of 20 μM cAMP, figure.
Method: as §2, §3
In experiment [5] the target is T1, EPAC1. Particulars: at 100 μM. The source says:
(§1) Given the physiological and pathophysiological significance of EPAC proteins, developing pharmacological EPAC modulators has attracted more and more attention. Most EPAC agonists are derivatives of cAMP, while non-cyclic nucleotide ligands usually display EPAC inhibitory activities. Cheng group developed a sensitive and robust fluorescence-based high throughput (HTS) assay, (Tsalkova et al., PloS one, (2012) 7:e30441) and discovered a series of non-cyclic nucleotide EPAC inhibitors (Tsalkova et al., Proc. Natl. Acad. Sci. U.S.A., (2012) 109:18613-18).

Experiment [6] deals with EPAC2. The following applies: read-out: IC50 against EPAC2.
Source text: as §1

[7] abbreviates: Rap 1b-bGDP EPAC1 IC50, apparent IC50, EPAC1 GEF activity, 20 μM cAMP.
The mark [8] stands for this setting: apparent IC50, EPAC1 GEF activity, 20 μM cAMP.

Like-named read-outs stand apart in the source and are kept apart here.

In general, IC50 refers to the concentration needed to halve the response being measured. Consider `CC(C)(C)c1ccc(-c2cc(C(=O)C(C#N)=NNc3cc(C(F)(F)F)cc(C(F)(F)F)c3)no2)cc1` [Compound 11, N-(3,5-Bis(trifluoromethyl)phenyl)-2-(5-(4-(tert-butyl)phenyl)isoxazol-3-yl)-2-oxoacetohydrazonoyl cyanide], for which the half-inhibitory concentration (IC50) in experiment [1] (setting [7]) turned out to be 11.9 ± 6 µM.

For the compound `CC(C)(C)c1ccc(-c2cc(C(=O)C(C#N)=NNc3ccc(C(F)(F)F)c(Cl)c3)no2)cc1` [Compound 9, N-(3-Chloro-4-(trifluoromethyl)phenyl)-2-oxo-2-(5-(4-(tert-butyl)phenyl)isoxazol-3-yl)acetohydrazonoyl cyanide], in experiment [1] (setting [7]), the IC50 came out at 9 ± 3.9 µM.

`COc1ccc(-c2cc(C(=O)C(C#N)=NNc3ccc(Cl)c(C(F)(F)F)c3)no2)cc1` [Compound 23, N-(4-Chloro-3-(trifluoromethyl)phenyl)-2-oxo-2-(5-(4-methoxyphenyl)isoxazol-3-yl)acetohydrazonoyl cyanide]: the IC50 in experiment [1] (setting [7]) is less than 8 µM; in experiment [2] it was 4.5 ± 1 µM.

Take `CC(C)(C)c1ccc(-c2cc(C(=O)C(C#N)=NNc3cccc(Cl)c3)no2)cc1` [Compound 7, N-(3-Chlorophenyl)-2-(5-(4-(tert-butyl)phenyl)isoxazol-3-yl)-2-oxoacetohydrazonoyl cyanide]: the concentration for half-maximal inhibition (IC50) in experiment [1] (Rap 1b-bGDP EPAC1 IC50) was 8.6 µM.

`N#CC(=NNc1cccc(Cl)c1)C(=O)c1noc2ccccc12` [Compound 30, 2-(Benzo[d]isoxazol-3-yl)-N-(3-chlorophenyl)-2-oxoacetohydrazonoyl cyanide] had an IC50 in experiment [1] (Rap 1b-bGDP EPAC1 IC50) of 13.2 µM. In the case of `N#CC(NNc1ccc(C(F)(F)F)c(Cl)c1)C(=O)c1cc(-c2ccccc2)on1` (centres unmarked) [Compound 17b], in experiment [3], the “Rap 1b-bGDP EPAC1 IC50” value is on record as “low micromolar range”. Moreover, in experiment [3] (read-out: Rap 1b-bGDP EPAC1 IC50), the IC50 was found to be 5.1 ± 0.3 µM. As for `N#CC(=NNc1ccc(Cl)c(C(F)(F)F)c1)C(=O)c1noc2ccccc12` [Compound 33, 2-(Benzo[d]isoxazol-3-yl)-N-(4-chloro-3-(trifluoromethyl)phenyl)-2-oxoacetohydrazonoyl cyanide], the “Rap 1b-bGDP EPAC1 IC50” value in experiment [3] (setting [8]) is given as “low micromolar range”. Moreover, the “Relative GEF activity, EPAC1-mediated Rap1b-bGDP exchange” value in experiment [3] (in the presence of 20 μM cAMP, figure) is “Dose-dependent inhibition”. For the same compound, the “Relative GEF activity, EPAC2-mediated Rap1b-bGDP exchange” value in experiment [4] is “Dose-dependent inhibition”. For the same compound, the IC50 amounted to 2.7 ± 0.3 µM in experiment [1] (setting [7]) and 1.9 µM in experiment [2]. Regarding `N#CC(=NNc1cc(C(F)(F)F)cc(C(F)(F)F)c1)C(=O)c1noc2ccccc12` [Compound 36, 2-(Benzo[d]isoxazol-3-yl)-N-(3,5-bis(trifluoromethyl)phenyl)-2-oxoacetohydrazonoyl cyanide], in experiment [1] (setting [7]), the IC50 is 6.7 ± 0.7 µM. With `N#CC(=NNc1cc(Cl)cc(C(F)(F)F)c1)C(=O)c1noc2ccccc12` [Compound 31, 2-(Benzo[d]isoxazol-3-yl)-N-(3-chloro-5-(trifluoromethyl)phenyl)-2-oxoacetohydrazonoyl cyanide], the figures for the IC50 in experiment [1] (setting [7]) and in experiment [2] were 4.6 ± 0.8 µM and 2.2 ± 0.2 µM, respectively. Regarding `Cc1cc(C)c(Nc2ccc(Cl)c(C(F)(F)F)c2)c(C)c1` [MAY0132], the “inhibition against EPAC1” value in experiment [5] is given as “no significant inhibition”. For the same compound, the half-inhibitory concentration (IC50) in experiment [6] was determined as 0.4 µM. Take `CC(C)(C)c1ccc(-c2cc(C(=O)C(C#N)=NNc3ccc(Cl)c(C(F)(F)F)c3)no2)cc1` [Compound 10, N-(4-Chloro-3-(trifluoromethyl)phenyl)-2-oxo-2-(5-(4-(tert-butyl)phenyl)isoxazol-3-yl)acetohydrazonoyl cyanide]: in experiment [3] (setting [8]), the “Rap 1b-bGDP EPAC1 IC50” value is on record as “low micromolar range”. The “Relative GEF activity, EPAC2-mediated Rap1b-bGDP exchange” value in experiment [4] is listed as “Dose-dependent inhibition”. Further, the figures for the IC50 in experiment [1] (setting [7]) and in experiment [2] were 7.3 µM and 2.2 ± 0.3 µM, respectively. Regarding `N#CC(=NNc1cc(F)cc(Cl)c1)C(=O)c1noc2ccccc12` [Compound 34, 2-(Benzo[d]isoxazol-3-yl)-N-(3-chloro-5-fluorophenyl)-2-oxoacetohydrazonoyl cyanide], half-maximal inhibition in experiment [1] (Rap 1b-bGDP EPAC1 IC50) (IC50) was put at 18.9 ± 4.9 µM.

As to `COc1ccc(C(=O)/C(C#N)=N/Nc2cc(Cl)cc(Cl)c2)cc1OC` [ZL0631, (E)-N-(3,5-dichlorophenyl)-2-(3,4-dimethoxyphenyl)-2-oxoacetohydrazonoyl cyanide], the IC50 in experiment [1] (setting [7]) is greater than 300 µM.

On to `N#CC(=NNc1cc(C(F)(F)F)cc(C(F)(F)F)c1)C(=O)c1cc(-c2ccccc2)on1` [Compound 15, N-(3,5-Bis(trifluoromethyl)phenyl)-2-oxo-2-(5-phenylisoxazol-3-yl)acetohydrazonoyl cyanide], for which the figures for the concentration for half-maximal inhibition (IC50) in experiment [1] (Rap 1b-bGDP EPAC1 IC50) and in experiment [2] were 7.2 ± 0.7 µM and 3.3 ± 0.8 µM, respectively. Take `N#CC(=NNc1ccc(F)c(Cl)c1)C(=O)c1noc2ccccc12` [Compound 35, 2-(Benzo[d]isoxazol-3-yl)-N-(3-chloro-4-fluorophenyl)-2-oxoacetohydrazonoyl cyanide]: the IC50 in experiment [1] (Rap 1b-bGDP EPAC1 IC50) is 8.5 ± 3.5 µM. As to `N#CC(=NNc1ccc(Cl)c(C(F)(F)F)c1)C(=O)c1cc(-c2ccco2)on1` [Compound 27, N-(4-Chloro-3-(trifluoromethyl)phenyl)-2-(5-(furan-2-yl)isoxazol-3-yl)-2-oxoacetohydrazonoyl cyanide], the “Relative GEF activity, EPAC2-mediated Rap1b-bGDP exchange” value in experiment [4] is “Dose-dependent inhibition”. In addition, the IC50 in experiment [1] (setting [7]) is 4.2 ± 0.9 µM; in experiment [2] it was 2.3 ± 0.2 µM. `N#CC(=NNc1ccc(Cl)c(C(F)(F)F)c1)C(=O)c1cc(-c2ccc(Cl)cc2)on1` [Compound 20, N-(4-Chloro-3-(trifluoromethyl)phenyl)-2-oxo-2-(5-(4-chlorophenyl)isoxazol-3-yl)acetohydrazonoyl cyanide] came in with an IC50 in experiment [1] (Rap 1b-bGDP EPAC1 IC50) of 7.8 ± 2.1 µM. Turning to `N#CC(=NNc1cc(Cl)cc(C(F)(F)F)c1)C(=O)c1cc(-c2ccco2)on1` [Compound 26, N-(3-Chloro-5-(trifluoromethyl)phenyl)-2-(5-(furan-2-yl)isoxazol-3-yl)-2-oxoacetohydrazonoyl cyanide], in experiment [3], the “Rap 1b-bGDP EPAC1 IC50” value is on record as “low micromolar range” and the “Relative GEF activity, EPAC1-mediated Rap1b-bGDP exchange” value was “Dose-dependent inhibition”. The same compound returned an IC50 in experiment [1] (Rap 1b-bGDP EPAC1 IC50) of 3.6 ± 0.2 µM. For the same compound, the IC50 in experiment [2] came out at 2.2 ± 0.3 µM. Turning to `N#CC(=NNc1ccc(Cl)c(C(F)(F)F)c1)C(=O)c1cc(-c2ccccc2)on1` [Compound 14, N-(3-Trifluromethyl-4-chlorophenyl)-2-oxo-2-(5-phenylisoxazol-3-yl)acetohydrazonoyl cyanide], in experiment [4] (read-out: Rap1b-bGDP EPAC2 IC50, apparent IC50, EPAC2 GEF activity, 20 μM cAMP), the half-inhibitory concentration (IC50) was […]. Regarding `N#C/C(=N\Nc1cc(Cl)cc(Cl)c1)C(=O)c1cccc(Cl)c1` [ZL0546, (E)-2-(3-chlorophenyl)-N-(3,5-dichlorophenyl)-2-oxoacetohydrazonoyl cyanide], in experiment [1] (setting [7]), the IC50 is greater than 300 µM.

With `N#CC(=NNc1ccc(C(F)(F)F)c(Cl)c1)C(=O)c1noc2ccccc12` [Compound 32, 2-(Benzo[d]isoxazol-3-yl)-N-(3-chloro-4-(trifluoromethyl)phenyl)-2-oxoacetohydrazonoyl cyanide], the “Rap 1b-bGDP EPAC1 IC50” value in experiment [3] (setting [8]) was “low micromolar range”. Besides, the IC50 in experiment [1] (setting [7]) turned out to be 3 ± 0.3 µM; in experiment [2] it was 2.2 ± 0.4 µM. Regarding `N#C/C(=N\Nc1cc(Cl)cc(Cl)c1)C(=O)c1ccc(Cl)cc1` [ZL0491, (E)-2-(4-chlorophenyl)-N-(3,5-dichlorophenyl)-2-oxoacetohydrazonoyl cyanide], the concentration for half-maximal inhibition (IC50) in experiment [1] (setting [7]) is greater than 300 µM. With `COc1ccc(-c2cc(C(=O)C(C#N)=NNc3cccc(Cl)c3)no2)cc1` [Compound 22, N-(3-Chlorophenyl)-2-(5-(4-methoxyphenyl)isoxazol-3-yl)-2-oxoacetohydrazonoyl cyanide], the “Relative GEF activity, EPAC1-mediated Rap1b-bGDP exchange” value in experiment [3] is reported as “Dose-dependent inhibition”. Further, in experiment [1] (Rap 1b-bGDP EPAC1 IC50), half-maximal inhibition (IC50) required 11.4 ± 2.8 µM. Turning to `N#CC(=NNc1cc(Cl)cc(C(F)(F)F)c1)C(=O)c1cc(-c2ccccc2)on1` [Compound 13, N′-(3-Chloro-5-(trifluoromethyl)phenyl)-2-oxo-2-(5-phenylisoxazol-3 yl)acetohydrazonoyl cyanide], in experiment [1] (Rap 1b-bGDP EPAC1 IC50), the IC50 is 9.5 ± 1.2 µM.
